Data reported in patent US5741811A, “Polythiophene anti-tumor agents” (Purdue Research Foundation, priority 1996, dated 1998).

How the values were obtained:
Assay in all cases: NCI human tumor cell line panel growth inhibition
Assay type in all cases: cell-based
[1] = tested on: NCI-H226 lung cancer cells; details: Homo sapiens, read-out: Log10 GI50 (converted)
SF-295 CNS cancer cells = details: read-out: Log10 GI50 (converted)
A-498 renal cancer cells = details: Homo sapiens, A498, read-out: Log10 GI50 (converted)
SK-MEL-2 melanoma cells = details: read-out: Log10 GI50 (converted)
SNB-75 CNS cancer cells = details: Homo sapiens, read-out: Log10 GI50 (converted)
EKVX lung cancer cells = details: read-out: Log10 GI50 (converted)
[2] = tested on: NCI-H322M lung cancer cells; details: Homo sapiens, read-out: Log10 GI50 (converted)
DLD-1 colon cancer cells = details: Homo sapiens, read-out: Log10 GI50 (converted)
[3] = tested on: HCT-15 colon cancer cells; details: Homo sapiens, read-out: Log10 GI50 (converted)
SN12C renal cancer cells = details: read-out: Log10 GI50 (converted)
SK-MEL-28 melanoma cells = details: read-out: Log10 GI50 (converted)
Excerpt: (§1) The cytotoxic activity of the present polythiophene compounds have been measured utilizing three different assays or screens. The first screen measures the cytotoxicity against a panel of sixty different human tumor cell lines. This assay provides data regarding the general cytotoxicity of an individual compound. In particular this type of assay is useful in identifying compounds which have enhanced cytotoxic activity against slow growing tumors as compared to faster growing tumor cells such as leukemia tumor cell lines. The identification of such compounds is critical since previously identified antitumor agents have low cytotoxic activity against slower growing tumors. […] The specificity of a cytotoxic compound for tumor cell lines relative to normal cells is an important characteristic of an effective antitumor agent.
(§2) The length of a bar is indicative of differential cytotoxicity against a specific type of tumor cells or tumor panels.
(§3) The antitumor cytotoxicity of the thiophene compounds tested in the first two in vitro assays was measured by a microculture assay using either 3-(4,5-dimethylthiazol-2-yl)-2,5-diphenyltetrazolium bromide (MTT) or sulforhodamine B (SRB). [M. R. Boyd in "Principles and Practices of Oncology," V. T. DeVita, Jr., S. Hellman and S. A. Rosenberg (Eds.), Vol. 3, PPO Updates, Number 10, 1989.] This assay has an advantage over in vivo assay in that results are obtained within a week as opposed to several months. The assay was carried out in 96-well microtiter plates. The MTT assay is based on the production of a dark blue formazan product by dehydrogenase in the mitochondria of live tumor cells after exposure to drug for 6 days [M. C. Alley, D. A. Scudiero, A. Monks, M. L. Hursey, M. J. Czerwinski, D. L. Fine, B. J. Abbott, J. G. Mayo, R. H. Shoemaker and M. R. Boyd, Cancer Res., 48, 589, 1988.] Thus, only live cells are stained and can be measured at 570 nm. The SRB assay is based on the binding of the anionic group to the basic amino acid residues of cellular proteins after exposure of tumor cells to drug for 2 days [P. Skehan, R. Storeng, D. Scudiero, A. Monks, J. McMahon, D. Vistica, J. T. Warren, H. Bohesch, S. Kenney and M. R. Boyd, J. Nat. Cancer Inst., 82, 1107, 1990.] Thus, the total protein (viability) can be measured at 564 nm.

[4] = tested on: OVCAR-4 ovarian cancer cells; details: Homo sapiens, read-out: Log10 GI50 (converted)
Excerpt: as §1, §2, §3

SF-268 CNS cancer cells = details: read-out: Log10 GI50 (converted)
[5] = tested on: RXF-393 renal cancer cells; details: Homo sapiens, read-out: Log10 GI50 (converted)
786-0 renal cancer cells = details: read-out: Log10 GI50 (converted)
[6] = tested on: NCI-H522 lung cancer cells; details: read-out: Log10 GI50 (converted)
[7] = tested on: KM20L2 colon cancer cells; details: Homo sapiens, KM-20L2, read-out: Log10 GI50 (converted)
[8] = tested on: NCI-H460 lung cancer cells; details: Homo sapiens, read-out: Log10 GI50 (converted)
M-14 melanoma cells = details: M14, read-out: Log10 GI50 (converted)
[9] = tested on: SW-620 colon cancer cells; details: Homo sapiens, read-out: Log10 GI50 (converted)
Method: (§4) The first screen measures the cytotoxicity against a panel of sixty different human tumor cell lines. This assay provides data regarding the general cytotoxicity of an individual compound.
as §2, §3

[10] = tested on: OVCAR-8 ovarian cancer cells; details: Homo sapiens, read-out: Log10 GI50 (converted)
Method: as §4, §2, §3

[11] = tested on: SK-OV-3 ovarian cancer cells; details: Homo sapiens, read-out: Log10 GI50 (converted)
[12] = tested on: COLO-205 colon cancer cells; details: Homo sapiens; COLO-205, colon cancer; read-out: Log10 GI50 (converted)
UACC-257 melanoma cells = details: Homo sapiens, read-out: Log10 GI50 (converted)
[13] = tested on: HCC-2998 colon cancer cells; details: Homo sapiens, read-out: Log10 GI50 (converted)
[14] = tested on: IGROV-1 ovarian cancer cells; details: Homo sapiens, read-out: Log10 GI50 (converted)
[15] = tested on: A549/ATCC lung cancer cells; details: Homo sapiens, read-out: Log10 GI50 (converted)
[16] = tested on: NCI-H23 lung cancer cells; details: read-out: Log10 GI50 (converted)
HT29 colon cancer cells = details: Homo sapiens, HT-29, read-out: Log10 GI50 (converted)
ACHN renal cancer cells = details: read-out: Log10 GI50 (converted)
[17] = tested on: OVCAR-3 ovarian cancer cells; details: Homo sapiens; OVCAR-3, ovarian cancer; read-out: Log10 GI50 (converted)
[18] = tested on: LXPL-529 lung cancer cells; details: Homo sapiens, read-out: Log10 GI50 (converted)
[19] = tested on: CAKI-1 renal cancer cells; details: Homo sapiens; CAKI-1, renal cancer; read-out: Log10 GI50 (converted)
MALME-3M melanoma cells = details: read-out: Log10 GI50 (converted)
UO-31 renal cancer cells = details: read-out: Log10 GI50 (converted)
[20] = tested on: OVCAR-5 ovarian cancer cells; details: Homo sapiens, read-out: Log10 GI50 (converted)
[21] = tested on: HCT-116 colon cancer cells; details: Homo sapiens, read-out: Log10 GI50 (converted)
TK-10 renal cancer cells = details: Homo sapiens, read-out: Log10 GI50 (converted)
UACC-62 melanoma cells = details: Homo sapiens, read-out: Log10 GI50 (converted)

`O=Cc1ccc(-c2ccc(-c3cccs3)s2)s1` [drawing 32] gave a GI50 [1] of 0.0245 µM, a GI50 (SF-295 CNS cancer cells) of 69.2 µM and a GI50 (A-498 renal cancer cells) of 0.0437 µM. For the same compound, the GI50 (SK-MEL-2 melanoma cells) was 30.9 µM, the GI50 (SNB-75 CNS cancer cells) was 31.6 µM and the GI50 (EKVX lung cancer cells) was 55 µM. The GI50 [2] was 42.7 µM, the GI50 (DLD-1 colon cancer cells) was 7.94 µM and the GI50 [3] was 24 µM. It also gave a GI50 (SN12C renal cancer cells) of 47.9 µM, a GI50 (SK-MEL-28 melanoma cells) of 89.1 µM and a GI50 [4] of 30.9 µM. For the same compound, the GI50 (SF-268 CNS cancer cells) was 87.1 µM, the GI50 [5] was 16.6 µM and the GI50 (786-0 renal cancer cells) was 43.7 µM. The GI50 [6] was 32.4 µM, the GI50 [7] was 0.49 µM and the GI50 [8] was 13.8 µM. The GI50 (M-14 melanoma cells) was 63.1 µM, the GI50 [9] was 0.537 µM and the GI50 [10] was 53.7 µM. For the same compound, the GI50 [11] was 87.1 µM, the GI50 [12] was 5.37 µM and the GI50 (UACC-257 melanoma cells) was 0.0468 µM. It also gave a GI50 [13] of 17.8 µM, a GI50 [14] of 0.0603 µM and a GI50 [15] of 32.4 µM. For the same compound, the GI50 [16] was 55 µM, the GI50 (HT29 colon cancer cells) was 24.5 µM and the GI50 (ACHN renal cancer cells) was 51.3 µM. The GI50 [17] was 0.0302 µM, the GI50 [18] was under 0.01 µM and the GI50 [19] was 0.0138 µM. The GI50 (MALME-3M melanoma cells) was 79.4 µM, the GI50 (UO-31 renal cancer cells) was 41.7 µM and the GI50 [20] was 0.138 µM. It also gave a GI50 [21] of 0.0631 µM, a GI50 (TK-10 renal cancer cells) of 0.525 µM and a GI50 (UACC-62 melanoma cells) of 0.01 µM.
